These compounds were tested against T1, human PAH with the R408W mutation (Homo sapiens, UniProt P00439, R408W) (assay: Cell Based Phenylalanine Flux Assay). Conditions: A375 cells expressing R408W PAH; 24 hrs with compound, then 20 µM sepiapterin and 800 µM 13C9,15N-Phenylalanine for 4 hours; 13C-Tyrosine by LC-MS; average where tested multiple times; read-out: AC50.
T1 construct: expressed in transfected cells
T1 sequence (P00439 1-452 R408W): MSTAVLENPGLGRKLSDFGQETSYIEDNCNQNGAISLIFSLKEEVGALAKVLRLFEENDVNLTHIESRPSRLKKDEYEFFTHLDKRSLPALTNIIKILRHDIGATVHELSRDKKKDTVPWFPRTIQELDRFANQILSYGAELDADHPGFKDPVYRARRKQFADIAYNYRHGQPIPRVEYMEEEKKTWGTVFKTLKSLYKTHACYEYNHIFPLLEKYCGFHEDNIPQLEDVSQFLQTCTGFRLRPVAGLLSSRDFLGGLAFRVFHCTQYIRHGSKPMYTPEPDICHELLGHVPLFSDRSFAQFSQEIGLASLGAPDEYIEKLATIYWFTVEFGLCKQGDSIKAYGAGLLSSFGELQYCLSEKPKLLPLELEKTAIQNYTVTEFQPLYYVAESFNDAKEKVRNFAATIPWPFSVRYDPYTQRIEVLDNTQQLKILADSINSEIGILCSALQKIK
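Also: after compound treatment, cells received sepiapterin plus isotope-labelled Phenylalanine for 4 hours, then labelled Tyrosine in the medium was quantified, 10-point 2-fold dilution series run in duplicate.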

AC50 | Structure (SMILES)
> 5000 nM | Fc1cccnc1-c1nnc(N2CCc3[nH]cnc3C2c2cc3c(C4CC4)cccn3n2)o1 (stereo not shown)
1000 to 5000 nM | O=C(c1cnco1)N1CCc2[nH]cnc2C1c1cc2cc(F)ccn2n1 (stereo not shown)
> 5000 nM | CC(C)(F)c1nnc(N2CCc3[nH]cnc3C2c2cc3c(Cl)cccn3n2)o1 (stereo not shown)
> 5000 nM | Cc1cccn2nc(C3c4nc[nH]c4CCN3C(=O)C3CCC3)cc12 (stereo not shown)
1000 to 5000 nM | Cc1ccc2cc(C3c4nc[nH]c4CCN3C(=O)c3nnc(C)o3)nn2c1 (stereo not shown)
> 5000 nM | CC(C)(C)c1nnc(N2CCc3[nH]cnc3C2c2cc3cccc(Cl)n3n2)o1 (stereo not shown)
> 5000 nM | c1cc(C2CC2)c2cc(C3c4nc[nH]c4CCN3c3nnc(-c4ccncn4)o3)nn2c1 (stereo not shown)

Same assay, conditions: A375 cells expressing human PAH R408W; 24 hrs compound incubation; 13C-Tyrosine by LC-MS; average where tested multiple times; read-out: AC50

AC50 | Structure (SMILES)
< 500 nM | Cc1cccnc1-c1nnc(N2CCc3[nH]cnc3[C@H]2c2cc3c(C4CC4)cccn3n2)o1 [Example 2283, (S)-2-(4-(4-cyclopropylpyrazolo[1,5-a]pyridin-2-yl)-1,4,6,7-tetrahydro-5H-imidazo[4,5-c]pyridin-5-yl)-5-(3-methylpyridin-2-yl)-1,3,4-oxadiazole]
500 to 1000 nM | CC1(c2nnc(N3CCc4[nH]cnc4[C@H]3c3cc4c(Cl)cccn4n3)o2)CC1 [Example 2259, (S)-2-(4-(4-chloropyrazolo[1,5-a]pyridin-2-yl)-1,4,6,7-tetrahydro-5H-imidazo[4,5-c]pyridin-5-yl)-5-(1-methylcyclopropyl)-1,3,4-oxadiazole]
500 to 1000 nM | O=C(c1cnc(-c2cnccn2)o1)N1CCc2[nH]cnc2[C@H]1c1cc2c(C(F)(F)F)cccn2n1 [Example 2244, (S)-(2-(pyrazin-2-yl)oxazol-5-yl)(4-(4-(trifluoromethyl)pyrazolo[1,5-a]pyridin-2-yl)-1,4,6,7-tetrahydro-5H-imidazo[4,5-c]pyridin-5-yl)methanone]
< 500 nM | CC(C)c1cccn2nc([C@@H]3c4nc[nH]c4CCN3C(=O)c3nnc(C(C)(C)C)o3)cc12 [Example 1902, (S)-(5-(tert-butyl)-1,3,4-oxadiazol-2-yl)(4-(4-isopropylpyrazolo[1,5-a]pyridin-2-yl)-1,4,6,7-tetrahydro-5H-imidazo[4,5-c]pyridin-5-yl)methanone]
500 to 1000 nM | O=C(c1nc2ccccc2s1)N1CCc2[nH]cnc2[C@H]1c1cc2c(C(F)F)cccn2n1 [Example 2022, (S)-benzo[d]thiazol-2-yl(4-(4-(difluoromethyl)pyrazolo[1,5-a]pyridin-2-yl)-1,4,6,7-tetrahydro-5H-imidazo[4,5-c]pyridin-5-yl)methanone]
< 500 nM | O=C(c1nnc(-c2ccccn2)s1)N1CCc2[nH]cnc2[C@H]1c1cc2ccccn2n1 [Example 1966, (S)-(4-(pyrazolo[1,5-a]pyridin-2-yl)-1,4,6,7-tetrahydro-5H-imidazo[4,5-c]pyridin-5-yl)(5-(pyridin-2-yl)-1,3,4-thiadiazol-2-yl)methanone]
< 500 nM | Fc1cccc(F)c1-c1nnc(N2CCc3[nH]cnc3[C@H]2c2cc3c(Cl)cccn3n2)o1 [Example 2063, (S)-2-(4-(4-chloropyrazolo[1,5-a]pyridin-2-yl)-1,4,6,7-tetrahydro-5H-imidazo[4,5-c]pyridin-5-yl)-5-(2,6-difluorophenyl)-1,3,4-oxadiazole]
< 500 nM | Cc1cccn2nc([C@@H]3c4nc[nH]c4CCN3C(=O)c3ocnc3C3CC3)cc12 [Example 1944, (S)-(4-cyclopropyloxazol-5-yl)(4-(4-methylpyrazolo[1,5-a]pyridin-2-yl)-1,4,6,7-tetrahydro-5H-imidazo[4,5-c]pyridin-5-yl)methanone]

Same assay, conditions: A375 cells expressing human R408W PAH; 24 hrs compound incubation; 13C-Tyrosine by LC-MS; average where tested multiple times; read-out: AC50

AC50 | Structure (SMILES)
< 500 nM | Cc1cccn2nc([C@@H]3c4nc[nH]c4CCN3C(=O)c3nnc(-c4ccc(F)cn4)o3)cc12 [Example 875, (S)-(5-(5-fluoropyridin-2-yl)-1,3,4-oxadiazol-2-yl)(4-(4-methylpyrazolo[1,5-a]pyridin-2-yl)-6,7-dihydro-1H-imidazo[4,5-c]pyridin-5(4H)-yl)methanone]
> 5000 nM | Cn1ccc(-c2nnc(C(=O)N3CCc4[nH]cnc4[C@@H]3c3cc4cccc(Cl)n4n3)o2)n1 [Example 977, (R)-(4-(7-chloropyrazolo[1,5-a]pyridin-2-yl)-6,7-dihydro-1H-imidazo(4,5-c]pyridin-5(4H)-yl)(5-(1-methyl-1H-pyrazol-3-yl)-1,3,4-oxadiazol-2-yl)methanone]
> 5000 nM | O=C(c1nnc(-c2ccc(F)cn2)o1)N1CCc2[nH]cnc2[C@@H]1c1cc2c(F)cccn2n1 [Example 880, (R)-(4-(4-fluoropyrazolo[1,5-a]pyridin-2-yl)-6,7-dihydro-1H-imidazo[4,5-c]pyridin-5(4H)-yl)(5-(5-fluoropyridin-2-yl)-1,3,4-oxadiazol-2-yl)methanone]
< 500 nM | Cn1cc(-c2nnc(C(=O)N3CCc4[nH]cnc4[C@H]3c3cc4c(OC(F)(F)F)cccn4n3)o2)cn1 [Example 1682, (S)-(5-(1-methyl-1H-pyrazol-4-yl)-1,3,4-oxadiazol-2-yl)(4-(4-(trifluoromethoxy)pyrazolo[1,5-a]pyridin-2-yl)-6,7-dihydro-1H-imidazo[4,5-c]pyridin-5(4H)-yl)methanone]
> 5000 nM | O=C(c1nnc(C2CCC2)o1)N1CCc2[nH]cnc2[C@@H]1c1cc2cccc(Cl)n2n1 [Example 1560, (R)-(4-(7-chloropyrazolo[1,5-a]pyridin-2-yl)-6,7-dihydro-1H-imidazo[4,5-c]pyridin-5(4H)-yl)(5-cyclobutyl-1,3,4-oxadiazol-2-yl)methanone]
1000 to 5000 nM | Cc1cccc(-c2nnc(C(=O)N3CCc4[nH]cnc4[C@@H]3c3cc4cccc(C(F)(F)F)n4n3)o2)n1 [Example 1401, (R)-(5-(6-methylpyridin-2-yl)-1,3,4-oxadiazol-2-yl)(4-(7-(trifluoromethyl)pyrazolo[1,5-a]pyridin-2-yl)-6,7-dihydro-1H-imidazo[4,5-c]pyridin-5(4H)-yl)methanone]
1000 to 5000 nM | Cc1cccn2nc([C@H]3c4nc[nH]c4CCN3C(=O)c3nnc(-c4ncccn4)o3)cc12 [Example 1310, (R)-(4-(4-methylpyrazolo[1,5-a]pyridin-2-yl)-6,7-dihydro-1H-imidazo[4,5-c]pyridin-5(4H)-yl)(5-(pyrimidin-2-yl)-1,3,4-oxadiazol-2-yl)methanone]
1000 to 5000 nM | Cc1cccn2nc([C@H]3c4nc[nH]c4CCN3C(=O)c3nnc(-c4cnn(C)c4C)o3)cc12 [Example 989, (R)-(5-(1,5-dimethyl-1H-pyrazol-4-yl)-1,3,4-oxadiazol-2-yl)(4-(4-methylpyrazolo[1,5-a]pyridin-2-yl)-6,7-dihydro-1H-imidazo[4,5-c]pyridin-5(4H)-yl)methanone]
1000 to 5000 nM | C[C@@H](O)c1nc(C(F)F)c(C(=O)N2CCc3[nH]cnc3[C@@H]2c2cc3c(Cl)cccn3n2)o1 [Example 703, ((R)-4-(4-chloropyrazolo[1,5-a]pyridin-2-yl)-6,7-dihydro-1H-imidazo[4.5-c]pyridin-5(4H)-yl)(4-(difluoromethyl)-2-((R)-1-hydroxyethyl)oxazol-5-yl)methanone]
> 5000 nM | Cc1ncoc1C(=O)N1CCc2[nH]cnc2[C@@H]1c1cc2ccccn2n1 [Example 607, (R)-(4-methyloxazol-5-yl)(4-(pyrazolo[1,5-a]pyridin-2-yl)-6,7-dihydro-1H-imidazo[4,5-c]pyridin-5(4H)-yl)methanone]
> 5000 nM | O=C(c1nnc(-c2ccccn2)o1)N1CCc2[nH]cnc2[C@@H]1c1cc2ccccn2n1 [Example 604, (R)-(4-(pyrazolo[1,5-a]pyridin-2-yl)-6,7-dihydro-1H-imidazo[4,5-c]pyridin-5(4H)-yl)(5-(pyridin-2-yl)-1,3,4-oxadiazol-2-yl)methanone]
500 to 1000 nM | c1ccc(-c2nnc(N3CCc4[nH]cnc4[C@H]3c3cc4ccccn4n3)o2)nc1 [Example 1291, (S)-2-(4-(pyrazolo[1,5-a]pyridin-2-yl)-6,7-dihydro-1H-imidazo[4,5-c]pyridin-5(4H)-yl)-5-(pyridin-2-yl)-1,3,4-oxadiazole]
> 5000 nM | Cc1cccc(-c2nnc(C(=O)N3CCc4[nH]cnc4[C@@H]3c3cc4cccc(C(F)F)n4n3)o2)n1 [Example 1595, (R)-(4-(7-(difluoromethyl)pyrazolo[1,5-a]pyridin-2-yl)-6,7-dihydro-1H-imidazo[4,5-c]pyridin-5(4H)-yl)(5-(6-methylpyridin-2-yl)-1,3,4-oxadiazol-2-yl)methanone]
< 500 nM | Cc1c([C@@H]2c3nc[nH]c3CCN2C(=O)c2ocnc2C(F)F)nn2ccccc12 [Example 784, (S)-(4-(difluoromethyl)oxazol-5-yl)(4-(3-methylpyrazolo[1,5-a]pyridin-2-yl)-6,7-dihydro-1H-imidazo[4,5-c]pyridin-5(4H)-yl)methanone]
> 5000 nM | Cn1ccc(-c2nnc(C(=O)N3CCc4[nH]cnc4[C@@H]3c3cc4c(Cl)cccn4n3)o2)n1 [Example 719, (R)-(4-(4-chloropyrazolo[1,5-a]pyridin-2-yl)-6,7-dihydro-1H-imidazo[4,5-c]pyridin-5(4H)-yl)(5-(1-methyl-1H-pyrazol-3-yl)-1,3,4-oxadiazol-2-yl)methanone]
1000 to 5000 nM | COc1cccn2nc([C@H]3c4nc[nH]c4CCN3C(=O)c3nnc(C(C)(C)C)o3)cc12 [Example 1182, (R)-(5-(tert-butyl)-1,3,4-oxadiazol-2-yl)(4-(4-methoxypyrazolo[1,5-a]pyridin-2-yl)-6,7-dihydro-1H-imidazo[4,5-c]pyridin-5(4H)-yl)methanone]

Reference: patent US20230365592A1 (Agios Pharmaceuticals, Inc., priority 2022, published 2023)
